Values quoted from earlier work, collected in patent publication US9854827B2, “Sweetener” (Tate & Lyle Ingredients Americas LLC, priority 2013, dated 2018).

Settings: % of the sweetness of sucrose

O=C(CO)C(O)C(O)C(O)CO (stereo not shown) [Allulose, allulose]
sweetness relative to sucrose: around 70%
